Laboratory results published in patent publication US10316061B2, “Synthesis of cell penetrating peptides for drug delivery and stem cell applications” (Temple University-Of The Commonwealth System of Higher …, priority 2014, dated 2019).

Tests used:
[1] = test system: ReNcell VM; assay: RT-qPCR analysis of neural marker gene expression in differentiated ReNcell VM; format: cell-based, human
Protocol: Differentiated stem cells were cultured for 10 weeks.
The statistical significance was evaluated compared to the control (differentiated ReNcell VM without chemicals) *P<0.05, **P<0.01. GAPDH served as control.
Total mRNA was extracted using mRNA isolation kit (Ambion, Life Technologies) according to the manufacturer's protocol. For higher yield, neural stem cells from eight wells in the same culture plate were homogenized in cell lysis buffer.
Concentrations of mRNA samples were evaluated based on OD260/OD280. mRNA samples were reverse transcribed using reverse transcription kit (Applied Biosystems). PCR amplification of cDNA was carried out using universal PCR master mix (Applied Biosystems) and gene-specific primer sets (Applied Biosystems). These primers included neural stem cell (Nestin, SOX2), immature neuron (Tubb3), mature neuron (MAP2), and astrocyte (GFAP) specific genes. GAPDH was used as a control (house keeping gene). The cycles for RT-PCR consisted of 1 second denaturation at 95° C., 20 second annealing at 60° C. RT-PCR products were analyzed using Mastercycler ep realplex 4 (Eppendorf).

[2] = test system: ReNcell VM cells; assay: Immunocytochemistry of Tubb3 / MAP2 protein expression in 4-week differentiated ReNcell VM; format: cell-based, human
Protocol: FIG. 15. Tubb3 Expression Analysis for 4-Week Differentiated ReNcell VM Cells. ReNcell VM cells were treated with neural stem cell culture medium (control), RA (retinoic acid), RA-PepB, C16-PepB, LiCl, and IFNγ (interferon gamma). Tubb3 proteins expressed in the cells were stained as green and cell nuclei were stained with blue (DAPI).
FIG. 16. MAP2 Expression Analysis for 4-Week Differentiated ReNcell VM Cells. ReNcell VM treated with cell culture media (control), RA, RA-PepB, C16-PepB, LiCl, and IFNγ (interferon gamma). MAP2 proteins expressed in the cells were stained as green and cell nuclei were stained with blue (DAPI) FIG. 17. Quantitation of Immunocytochemistry Results for Tubb3/MAP2 Proteins. Relative numbers of the cells expressing Tubb3 and MAP2 proteins were counted and normalized to the control group (*P<0.05, **P<0.01).
The proteins expressed in ReNcell VM cells were visualized with antibodies to study the protein expression by the differentiation of the stem cells in the presence of various soluble factors including RA-PepB and C16-PepB. […] As is shown in FIGS. 15 and 16, Tubb3 or MAP2 expression levels in 4-week differentiated ReNcell VM cells were evaluated via immunocytochemistry (ICC). Protein expression, after antibody staining, was visualized and quantitatively compared by counting Tubb3 or MAP2-positive cells. […]

[3] = test system: HEK293 cells; assay: Live-cell / confocal uptake of ROX-labeled PepA derivatives in HEK293; format: cell-based; settings: HEK293 cultures; ROX dye label
Text: FIG. 9 is a series of images depicting live-cell uptake of bioactive peptide A (PepA) labeled with the ROX Dye. Bioconjugation with palmitic acid (C16 tail) and/or CPP AAAAEK (PepX) attachments increased cellular uptake in HEK293 cultures.
FIG. 11 is a series of images depicting laser-scanning confocal microscope imaging of bioactive peptide A (PepA) labeled with the ROX dye. Bioconjugation with palmitic acid (C16 tail) and/or CPP AAAAEK (PepX) attachments increased cellular uptake in HEK293 cultures.
Bioactive (model) peptide A (PepA) and CPP X (PepX) were synthesized via solid phase peptide synthesis (SPPS) methods (Suh et al., 2001 Comprehen. Biomat 4: 219-245; Suh et al., 2013 Polymer Adhesion, Friction and Lubrication 283-317 (Wiley)). Fmoc-deprotection was performed with organic bases such as 4-methyl piperidine and DBU in DMF at room temperature. Coupling reaction was performed in the presence of Fmoc-protected amino acids with the mixture of coupling reagents and organic bases (e.g., HBTU, HOBt and DIEA). The cleaved peptide from the resin was purified by HPLC, collected, and stored for future uses. HEK293 and ReNcell VM cell lines were maintained and utilized for cellular experiments. Live-Cell imaging analysis was performed on an Olympus IX81 and IX83-DSU wide-field spinning disc confocal microscope equipped with an LCI Chamlide stage-top incubator unit. […]

## CC1=C(/C=C/C(C)=C/C=C/C(C)=C/C(=O)O)C(C)(C)CCC1 [RA, Retinoic acid]
[1]; differentiated stem cells cultured for 10 weeks
  cytotoxicity in differentiation culture (FIG. 6): Highly cytotoxic; low cell count among results

## [Cl-].[Li+] [LiCl, lithium chloride]
[2]
  Tubb3 expression compared to the control (ICC, positive cell count): statistically significant increases

## AAAAEK(A) [PepB]
[3]
  live-cell uptake (FIG. 9): increased cellular uptake of multiple peptides in a synergistic manner
[1]; 1 to 4 weeks of differentiation, GAPDH control
  neuronal differentiation by qRT-PCR (FIGS. 12 and 13): increased neuronal differentiations
